From PubChem BioAssay (NCI)
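96-well plates; 48 h exposure; 5 concentrations. Endpoints by linear interpolation between flanking doses. Not reached: highest tested concentration assigned. GI50 is the concentration that inhibits growth by half. TGI: total growth inhibition.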

How the values were obtained:
Test in all cases: growth of human tumour cells (NCI), 48 h
HL-60(TB) leukemia = system: HL-60(TB) leukemia
MDA-MB-231 breast = system: MDA-MB-231 breast
LOX IMVI melanoma = system: LOX IMVI melanoma
A498 renal = system: A498 renal
MOLT-4 leukemia = system: MOLT-4 leukemia
OVCAR-5 ovarian = system: OVCAR-5 ovarian
NCI-H226 lung = system: NCI-H226 lung
UO-31 renal = system: UO-31 renal
786-0 renal = system: 786-0 renal
NCI-H522 lung = system: NCI-H522 lung

Structure (SMILES): CC(C)(C)OC(=O)N(CCCn1c2c(c3ccccc3c1=O)C(=O)c1ccccc1-2)CCN(CCCn1c2c(c3ccccc3c1=O)C(=O)c1ccccc1-2)C(=O)OC(C)(C)C
- GI50 (HL-60(TB) leukemia): > 50 µM
- TGI (HL-60(TB) leukemia): > 50 µM
- GI50 (MDA-MB-231 breast): 15.3 µM
- TGI (MDA-MB-231 breast): > 50 µM
- GI50 (LOX IMVI melanoma): 25.2 µM
- TGI (LOX IMVI melanoma): > 50 µM
- GI50 (A498 renal): > 50 µM
- TGI (A498 renal): > 50 µM
- GI50 (MOLT-4 leukemia): 4 µM
- TGI (MOLT-4 leukemia): 16.1 µM
- GI50 (OVCAR-5 ovarian): > 50 µM
- TGI (OVCAR-5 ovarian): > 50 µM
- GI50 (NCI-H226 lung): > 50 µM
- TGI (NCI-H226 lung): > 50 µM
- GI50 (UO-31 renal): > 50 µM
- TGI (UO-31 renal): > 50 µM
- GI50 (786-0 renal): 13.6 µM
- TGI (786-0 renal): > 50 µM
- GI50 (NCI-H522 lung): 21.3 µM
- TGI (NCI-H522 lung): > 50 µM

Structure (SMILES): Cc1cc2cc(Oc3ccnc(Nc4cccc(CS(=O)(=O)NCCN(C)C)c4)n3)ccc2[nH]1
- GI50 (HL-60(TB) leukemia): 2.24 µM
- TGI (HL-60(TB) leukemia): 6.17 µM
- GI50 (MDA-MB-231 breast): 4.61 µM
- TGI (MDA-MB-231 breast): 17.2 µM
- GI50 (LOX IMVI melanoma): 3.51 µM
- TGI (LOX IMVI melanoma): 15 µM
- GI50 (A498 renal): 1.04 µM
- TGI (A498 renal): 4.19 µM
- GI50 (MOLT-4 leukemia): 2.1 µM
- TGI (MOLT-4 leukemia): 7.06 µM
- GI50 (OVCAR-5 ovarian): 5.29 µM
- TGI (OVCAR-5 ovarian): 19.5 µM
- GI50 (NCI-H226 lung): 7.25 µM
- TGI (NCI-H226 lung): 22.1 µM
- GI50 (UO-31 renal): 3.14 µM
- TGI (UO-31 renal): 14.9 µM
- GI50 (786-0 renal): 4.46 µM
- TGI (786-0 renal): 17 µM
- GI50 (NCI-H522 lung): 3.69 µM
- TGI (NCI-H522 lung): 14.7 µM

Structure (SMILES): CC(C)(C)c1ccc(NC(=O)c2cc(=O)c3ccccc3[nH]2)c(C(C)(C)C)c1O
- GI50 (HL-60(TB) leukemia): 4.27 µM
- TGI (HL-60(TB) leukemia): 17.2 µM
- GI50 (MDA-MB-231 breast): 3.29 µM
- TGI (MDA-MB-231 breast): 13.9 µM
- GI50 (LOX IMVI melanoma): 3.22 µM
- TGI (LOX IMVI melanoma): 13.1 µM
- GI50 (A498 renal): 4.33 µM
- TGI (A498 renal): 19.7 µM
- GI50 (MOLT-4 leukemia): 2.67 µM
- TGI (MOLT-4 leukemia): 7.59 µM
- GI50 (OVCAR-5 ovarian): 6.26 µM
- TGI (OVCAR-5 ovarian): 18.7 µM
- GI50 (NCI-H226 lung): 13.6 µM
- TGI (NCI-H226 lung): 28.9 µM
- GI50 (UO-31 renal): 5.15 µM
- TGI (UO-31 renal): 17.5 µM
- GI50 (786-0 renal): 3.05 µM
- TGI (786-0 renal): 12.1 µM
- GI50 (NCI-H522 lung): 8.04 µM
- TGI (NCI-H522 lung): 20.8 µM

Structure (SMILES): O=C(O)C1(C(=O)O)CCN(S(=O)(=O)c2ccccc2)CC1
- TGI (HL-60(TB) leukemia): > 100 µM
- TGI (MDA-MB-231 breast): > 100 µM
- TGI (LOX IMVI melanoma): > 100 µM
- TGI (A498 renal): > 100 µM
- TGI (MOLT-4 leukemia): > 100 µM
- TGI (OVCAR-5 ovarian): > 100 µM
- TGI (NCI-H226 lung): > 100 µM
- TGI (UO-31 renal): > 100 µM
- TGI (786-0 renal): > 100 µM
- TGI (NCI-H522 lung): > 100 µM

Structure (SMILES): CC(=O)OC1CC(C)c2c1ncnc2N1CCN(C(=O)OC(C)(C)C)CC1 (stereo not given)
- GI50 (HL-60(TB) leukemia): 25.9 µM
- TGI (HL-60(TB) leukemia): 83.6 µM
- GI50 (MDA-MB-231 breast): 42.8 µM
- TGI (MDA-MB-231 breast): > 100 µM
- GI50 (LOX IMVI melanoma): 47.8 µM
- TGI (LOX IMVI melanoma): > 100 µM
- GI50 (A498 renal): 37.8 µM
- TGI (A498 renal): > 100 µM
- GI50 (MOLT-4 leukemia): 37.2 µM
- TGI (MOLT-4 leukemia): > 100 µM
- GI50 (OVCAR-5 ovarian): 99.2 µM
- TGI (OVCAR-5 ovarian): > 100 µM
- GI50 (NCI-H226 lung): 63.9 µM
- TGI (NCI-H226 lung): > 100 µM
- GI50 (UO-31 renal): > 100 µM
- TGI (UO-31 renal): > 100 µM
- GI50 (786-0 renal): 56.2 µM
- TGI (786-0 renal): > 100 µM
- GI50 (NCI-H522 lung): 22.6 µM
- TGI (NCI-H522 lung): 47.2 µM

Structure (SMILES): CC(C)NCCCNC1=C(Cl)C(=O)c2ccccc2C1=O
- GI50 (HL-60(TB) leukemia): 2.2 µM
- TGI (HL-60(TB) leukemia): 5.03 µM
- GI50 (MDA-MB-231 breast): 4.08 µM
- TGI (MDA-MB-231 breast): 18.3 µM
- GI50 (LOX IMVI melanoma): 1.87 µM
- TGI (LOX IMVI melanoma): 3.96 µM
- GI50 (A498 renal): 12.2 µM
- TGI (A498 renal): 25.1 µM
- GI50 (MOLT-4 leukemia): 2.05 µM
- TGI (MOLT-4 leukemia): 4.61 µM
- GI50 (OVCAR-5 ovarian): 14.3 µM
- TGI (OVCAR-5 ovarian): 31.1 µM
- GI50 (NCI-H226 lung): 12.8 µM
- TGI (NCI-H226 lung): 27.6 µM
- GI50 (UO-31 renal): 14.4 µM
- TGI (UO-31 renal): 29.2 µM
- GI50 (786-0 renal): 18.1 µM
- TGI (786-0 renal): 33.5 µM
- GI50 (NCI-H522 lung): 8.69 µM
- TGI (NCI-H522 lung): 21.8 µM

Structure (SMILES): COc1ccc(-n2nc(C)c3c(Nc4ccc(NC(=O)Nc5cc(C(F)(F)F)ccc5F)cc4)ncnc32)cc1
- GI50 (HL-60(TB) leukemia): 2.55 µM
- TGI (HL-60(TB) leukemia): 6.67 µM
- GI50 (MDA-MB-231 breast): 1.61 µM
- TGI (MDA-MB-231 breast): 3.55 µM
- GI50 (LOX IMVI melanoma): 1.67 µM
- TGI (LOX IMVI melanoma): 3.1 µM
- GI50 (A498 renal): 2.82 µM
- TGI (A498 renal): 7.18 µM
- GI50 (MOLT-4 leukemia): 2.69 µM
- TGI (MOLT-4 leukemia): 12.1 µM
- GI50 (OVCAR-5 ovarian): 2.87 µM
- TGI (OVCAR-5 ovarian): 10.6 µM
- GI50 (NCI-H226 lung): 2.34 µM
- TGI (NCI-H226 lung): 7.23 µM
- GI50 (UO-31 renal): 1.79 µM
- TGI (UO-31 renal): 7.04 µM
- GI50 (786-0 renal): 2.04 µM
- TGI (786-0 renal): 5.2 µM
- GI50 (NCI-H522 lung): 1.94 µM
- TGI (NCI-H522 lung): 4.95 µM
